Reference: ChEMBL document CHEMBL3639365, “Substituted aniline derivatives” (2014)

Experiments:
1,3-beta-glucan synthase [1] = molecular target: 1,3-beta-glucan synthase (Candida, UniProt O13428); experiment: (§1) Glucan Synthase Assay: The glucan synthase assay follows the incorporation of tritiated UDP-glucose into acid insoluble β-glucan as catalysed by the glucan synthase activity present in membrane preparations from Candida albicans and Aspergillus fumigatus. UDP-[3H]-glucose (ca 0.01 μCi) is added to 100 μl assay buffer (50 mM Tris-Cl, pH8.0, 8% glycerol, 1 mM EDTA, 1.5 mM KF, 1 mM DTT, 20 μM GTPγS, 600 μM UDP-glucose) and the reaction initiated by the addition of 2.5 μl of enzyme preparation. After incubation at 30°C. for 120 minutes, 10 μl of 30 mg/ml BSA is added with mixing and the reaction is terminated with 110 μl ice-cold 20% TCA. The precipitate is collected on a GF/B filter plate and washed three times with 200 μl water. Once dry, 200 μl of Microscint20 is added to each well and the plate is read on a Top-count scintillation counter.
Sequence of 1,3-beta-glucan synthase (Candida, UniProt O13428) (O13428 whole entry): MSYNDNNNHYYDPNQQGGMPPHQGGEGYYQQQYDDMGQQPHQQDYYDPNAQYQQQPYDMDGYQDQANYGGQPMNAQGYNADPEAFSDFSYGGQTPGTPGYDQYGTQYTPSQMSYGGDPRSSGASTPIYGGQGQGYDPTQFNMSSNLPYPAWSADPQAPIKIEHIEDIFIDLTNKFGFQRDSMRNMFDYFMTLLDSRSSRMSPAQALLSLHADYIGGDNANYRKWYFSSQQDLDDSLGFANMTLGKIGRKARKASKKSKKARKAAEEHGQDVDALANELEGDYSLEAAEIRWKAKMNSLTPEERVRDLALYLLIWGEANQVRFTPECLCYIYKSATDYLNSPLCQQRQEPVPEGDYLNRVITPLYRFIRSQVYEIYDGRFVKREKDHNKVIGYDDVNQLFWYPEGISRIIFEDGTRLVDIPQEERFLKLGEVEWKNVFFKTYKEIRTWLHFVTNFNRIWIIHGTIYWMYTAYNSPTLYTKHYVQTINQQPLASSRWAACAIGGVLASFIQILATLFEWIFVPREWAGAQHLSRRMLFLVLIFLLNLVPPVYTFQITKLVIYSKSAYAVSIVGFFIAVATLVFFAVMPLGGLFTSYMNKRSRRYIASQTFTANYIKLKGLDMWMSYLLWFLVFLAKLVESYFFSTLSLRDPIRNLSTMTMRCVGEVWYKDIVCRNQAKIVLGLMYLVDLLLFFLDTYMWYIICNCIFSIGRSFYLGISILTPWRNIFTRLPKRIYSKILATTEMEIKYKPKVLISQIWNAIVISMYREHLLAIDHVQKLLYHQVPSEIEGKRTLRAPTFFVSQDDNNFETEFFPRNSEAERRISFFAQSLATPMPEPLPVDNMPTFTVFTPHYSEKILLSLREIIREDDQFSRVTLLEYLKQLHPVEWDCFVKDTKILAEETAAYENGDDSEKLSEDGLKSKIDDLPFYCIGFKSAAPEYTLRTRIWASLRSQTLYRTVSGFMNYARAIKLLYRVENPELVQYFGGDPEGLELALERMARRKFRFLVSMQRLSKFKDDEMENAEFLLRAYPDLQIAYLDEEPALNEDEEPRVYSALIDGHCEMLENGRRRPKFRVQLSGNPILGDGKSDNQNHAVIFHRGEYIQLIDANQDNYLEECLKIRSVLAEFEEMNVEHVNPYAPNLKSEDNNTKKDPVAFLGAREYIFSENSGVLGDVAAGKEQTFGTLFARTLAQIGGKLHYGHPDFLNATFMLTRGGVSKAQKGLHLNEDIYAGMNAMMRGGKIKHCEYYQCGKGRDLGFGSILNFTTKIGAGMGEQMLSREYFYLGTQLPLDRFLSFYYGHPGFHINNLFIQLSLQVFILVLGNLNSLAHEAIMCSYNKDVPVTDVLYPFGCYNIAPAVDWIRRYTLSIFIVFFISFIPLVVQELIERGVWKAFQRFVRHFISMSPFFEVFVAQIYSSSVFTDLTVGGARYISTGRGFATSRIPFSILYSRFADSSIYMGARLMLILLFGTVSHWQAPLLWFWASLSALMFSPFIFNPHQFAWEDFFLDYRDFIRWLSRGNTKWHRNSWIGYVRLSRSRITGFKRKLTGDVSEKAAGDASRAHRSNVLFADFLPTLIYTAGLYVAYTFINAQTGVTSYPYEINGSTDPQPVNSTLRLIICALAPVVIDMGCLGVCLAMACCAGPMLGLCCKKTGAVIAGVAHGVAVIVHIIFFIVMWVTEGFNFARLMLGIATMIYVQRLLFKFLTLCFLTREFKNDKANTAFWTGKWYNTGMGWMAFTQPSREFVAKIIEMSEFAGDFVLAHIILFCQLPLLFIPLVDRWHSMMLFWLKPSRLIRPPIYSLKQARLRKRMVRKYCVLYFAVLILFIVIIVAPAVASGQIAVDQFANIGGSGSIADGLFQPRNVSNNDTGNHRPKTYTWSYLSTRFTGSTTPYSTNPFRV

1,3-beta-glucan synthase [2] = molecular target: 1,3-beta-glucan synthase (Aspergillus, UniProt Q4WLT4); experiment: as §1
Sequence of 1,3-beta-glucan synthase (Aspergillus, UniProt Q4WLT4) (Q4WLT4 whole entry): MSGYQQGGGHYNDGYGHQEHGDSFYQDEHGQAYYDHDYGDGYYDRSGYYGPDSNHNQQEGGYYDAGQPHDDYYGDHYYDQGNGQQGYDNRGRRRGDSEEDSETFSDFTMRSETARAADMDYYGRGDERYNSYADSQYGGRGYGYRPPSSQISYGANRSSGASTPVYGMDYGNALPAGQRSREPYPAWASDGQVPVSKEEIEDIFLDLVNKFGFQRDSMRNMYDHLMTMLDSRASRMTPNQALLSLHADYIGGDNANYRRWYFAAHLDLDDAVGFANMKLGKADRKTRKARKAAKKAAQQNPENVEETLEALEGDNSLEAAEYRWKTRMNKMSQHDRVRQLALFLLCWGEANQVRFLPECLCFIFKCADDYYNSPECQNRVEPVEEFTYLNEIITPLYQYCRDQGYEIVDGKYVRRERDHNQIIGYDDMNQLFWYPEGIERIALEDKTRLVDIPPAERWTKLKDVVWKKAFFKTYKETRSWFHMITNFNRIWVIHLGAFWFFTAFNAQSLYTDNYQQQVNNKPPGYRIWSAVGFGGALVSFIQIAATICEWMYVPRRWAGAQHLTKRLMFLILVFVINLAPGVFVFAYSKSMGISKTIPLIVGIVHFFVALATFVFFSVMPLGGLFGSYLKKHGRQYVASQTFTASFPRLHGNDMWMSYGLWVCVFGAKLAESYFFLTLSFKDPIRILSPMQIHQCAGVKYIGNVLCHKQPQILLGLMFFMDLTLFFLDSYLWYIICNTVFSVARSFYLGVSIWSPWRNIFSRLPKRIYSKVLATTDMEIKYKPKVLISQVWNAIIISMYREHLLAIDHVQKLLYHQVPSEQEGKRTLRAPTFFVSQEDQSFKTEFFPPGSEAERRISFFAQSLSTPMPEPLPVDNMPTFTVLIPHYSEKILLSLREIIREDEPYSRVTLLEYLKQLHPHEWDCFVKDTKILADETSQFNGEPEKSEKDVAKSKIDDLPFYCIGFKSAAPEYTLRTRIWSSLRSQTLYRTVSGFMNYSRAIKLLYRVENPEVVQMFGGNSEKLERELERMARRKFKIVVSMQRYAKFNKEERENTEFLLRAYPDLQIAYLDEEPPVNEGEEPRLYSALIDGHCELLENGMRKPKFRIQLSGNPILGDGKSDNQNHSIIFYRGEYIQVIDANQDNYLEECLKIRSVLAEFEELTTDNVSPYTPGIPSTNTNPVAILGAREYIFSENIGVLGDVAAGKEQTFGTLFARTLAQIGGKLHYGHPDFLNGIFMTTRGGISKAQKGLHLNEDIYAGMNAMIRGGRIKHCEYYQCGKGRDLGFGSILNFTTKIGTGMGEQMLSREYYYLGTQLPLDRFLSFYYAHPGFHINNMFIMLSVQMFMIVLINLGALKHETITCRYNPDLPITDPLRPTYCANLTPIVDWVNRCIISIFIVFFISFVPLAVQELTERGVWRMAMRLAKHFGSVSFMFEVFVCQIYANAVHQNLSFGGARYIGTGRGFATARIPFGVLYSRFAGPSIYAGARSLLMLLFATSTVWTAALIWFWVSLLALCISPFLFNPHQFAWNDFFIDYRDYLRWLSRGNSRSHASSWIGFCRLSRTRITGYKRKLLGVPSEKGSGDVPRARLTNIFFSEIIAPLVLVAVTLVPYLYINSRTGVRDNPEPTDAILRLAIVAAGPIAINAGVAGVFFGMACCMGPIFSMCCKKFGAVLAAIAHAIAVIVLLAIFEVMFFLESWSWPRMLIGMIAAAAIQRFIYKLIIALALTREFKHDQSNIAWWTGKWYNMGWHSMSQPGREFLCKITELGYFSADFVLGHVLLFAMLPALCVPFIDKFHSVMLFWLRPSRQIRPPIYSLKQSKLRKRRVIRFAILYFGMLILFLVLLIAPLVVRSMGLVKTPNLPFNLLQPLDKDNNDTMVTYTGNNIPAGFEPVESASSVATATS

## N[C@H]1CCN(C(=O)CN(CC(=O)NCc2cccc(Cl)c2)c2ccc(Oc3ccccc3)cc2)C1
1,3-beta-glucan synthase [1]
  IC50: 8 µM
1,3-beta-glucan synthase [2]
  IC50: 5.6 µM
